In patent US4127687A, “Prevention of fouling of marine structures such as boat hulls” (Rohm and Haas Company, priority 1976, dated 1978):
Converted amounts (≈) assume the structure as drawn. Like-named read-outs stand apart in the source and are kept apart here.

How the values were obtained:
[1] = system: sea water marine organisms; assay: Effectiveness as sea water marine anti-foulant; format: in vivo; conditions: result in words
Excerpt: The results in anti-fouling paints when utilizing the 3-isothiazolones of the patents noted above, are not predictable from their effectiveness as general biocides, whether against fresh water algae, bacteria, fungi, insects, etc.
Of the compounds appearing hereinafter in the examples, a number are common to Table 1 appearing in columns 9-12 of the U.S. Pat. No. 3,573,488 patent. Among the compounds common to the latter patent and the present specification are the compounds identified in the patent as example numbers 3, 5-8, 13, 23, 24, 33, 36, 37, the n-octyl isomer of examples 38, 40, 75, 76, 79, 84, and 93-96.
In example B of the U.S. Pat. No. 3,573,448 patent (appearing in columns 22-24) involving the control of algae, bacteria, fungi, and slime in fresh water cooling towers, not one of the compounds, or in some cases its homologue or analog, was effective as a salt water marine anti-foulant. […]
In the following examples, two systems of testing the compounds and evaluating the same are utilized. One involves the utilization of a confined amount of the materials to be evaluated in a cylindrical container having an open end covered by a membrane permeable to a limited extent by the sea water and by the compound in the container. The other method involves making up an anti-fouling paint and testing the same. In a four month period, meaningful results are obtained, and for a full scale test, a six month period, bracketing the summer months, is preferred. The evaluations involving (1) field tests, (2) laboratory tests, and (3) paint panel tests, are as follows: […]

weed [2] = assay: Membrane Diffusion Raft Trials, weed control; format: in vivo, grass-like algal growth common in sea water; conditions: membrane test, average 15 to 16 weeks of immersion
Method in brief: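 Field raft test in sea water: known quantity of compound in container sealed with membrane of known porosity, diffusing into surrounding water; panels at waterline (illuminated, aerated) and flats (poorly lit, deeper). Fouling settlement inspected over about 15-16 weeks average immersion; scored 0 none, + some, ++ effective.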

barnacle = assay: Membrane Diffusion Raft Trials, barnacle control; format: in vivo, barnacles; conditions: membrane test, average 15 to 16 weeks of immersion
Method in brief: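 Test compound held in a plastic container sealed by a porous membrane, diffusing into surrounding seawater on raft panels alongside standard poisons and a non-toxic control membrane. Settlement timed and quantified by regular inspection; scored 0 (none), + (some) or ++ (effective), averaging 15 to 16 weeks' immersion.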

[3] = Amount of toxicant remaining in the test container after membrane diffusion raft tests; format: physicochemical; parameters: key: 0: empty or trace; +: some; + +: ample; conditions: after completion of membrane diffusion raft tests
Method in brief: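 Known amount of compound held in a cylindrical container sealed with a membrane of known porosity, fixed to a raft panel so toxicant diffuses into the surrounding water. Each panel carries 35 test compounds, 4 standard poisons and 1 non-toxic membrane control. After the trial, container contents inspected visually for remaining toxicant (0 = empty or trace).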

Enteromorpha spores = assay: Laboratory toxicity test (Lab Bioassay) with Enteromorpha spores; format: in vivo; conditions: using Enteromorpha spores
Excerpt: Standard laboratory toxicity tests use Enteromorpha spores (zoospores or gametes) but Ectocarpus spores and barnacle nauplii may also be used. During the spore tests additional information on the control of bacterial and diatom slimes becomes available since these organisms are unavoidably introduced with the spore inoculum.
More detailed laboratory toxicity tests on promising compounds determine LD50 values as percentage saturated solution.
^c Using Enteromorpha spores.

[4] = Water solubility by UV spectrophotometric method; format: physicochemical; conditions: water
Method in brief: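 Molar absorptivity determined from UV absorbance of a known-concentration aqueous solution at λmax (10 cm cell). Saturated solution prepared by stirring excess compound in deionized water ~72 hrs, filtered, diluted to mid-scale absorbance; solubility calculated from absorbance using that absorptivity.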

weed [5] = assay: Paint panel / plaque tests against weed (Table 2); format: in vivo, grass-like algal growth common in sea water; parameters: key: high performance; medium performance; low performance; poor or unacceptable performance; conditions: April to November, 1975
Excerpt: (3) PAINT FORMULATION AND TEST PANEL OR PLAQUE TESTS
In order to evaluate the compound under practical conditions, weighed quantities of promising compounds are ground in standard volumes of a selected range of paint media and brushed out on plaques for marine immersion.
The anti-fouling paint formulations used is exemplified by the following: […]
The most preferred specific compounds were utilized in paints including vinyl chloride-vinyl acetate copolymers, chlorinated rubber, acrylic emulsions, and conventional paints with or without rosin to contain 20% by weight of biocide in the wet film and in some cases (Example 144 and Example 145) with concentrations of 5, 10, and 15% based on the wet film. Each of the compounds is also described in the membrane tests noted above. The paints were applied at normal thicknesses to plaques or panels of 10 centimeters by 10 centimeters which were immersed in various positions as described for the raft noted above. The compounds and results, as against weed, in the season April to November, 1975, are as follows: […]

[6] = saturated solution, Table 1, read-out: Solubility by UV method

SMILES | Weed Control (weed [2]) | Barnacle Control (barnacle) | Contents at the end of test (amount of toxicants remaining in the test container) [3] | Lab Bioassay LD50 (Enteromorpha spores) | solubility [4, 6] | also measured
O=c1ccsn1Cc1ccccc1 [2-benzyl-3-isothiazolone, reference compound] |  |  |  |  |  | effectiveness as anti-foulant in sea water marine environments [1]: not active for controlling sea water marine organisms; effectiveness as anti-foulant in sea water marine environments ([1]; listed as benzyl analogue of 2-n-butyl-3-isothiazolone): ineffective as anti-foulants
CCCCCCCCCCn1sccc1=O [2-n-decyl-3-isothiazolone, reference compound] |  |  |  |  |  | effectiveness as anti-foulant in sea water marine environments [1]: ineffective as anti-foulants
Cn1scc(Cl)c1=O [4-chloro-2-methyl-3-isothiazolone, reference compound] |  |  |  |  |  | effectiveness as anti-foulant in sea water marine environments [1]: not active for controlling sea water marine organisms
COc1c(Cl)cccc1-n1sc(Cl)cc1=O [Example 42] | + + | + | + + | 0.03 percentage saturated solution | 45 µg/mL (≈ 163 µM) | 
CCCCCCCCn1scc(Cl)c1=O [Example 43] | + + | 0 | + | 0.0003 percentage saturated solution | 60 µg/mL (≈ 242 µM) | Effectiveness in paint V (polyvinyl chloride-acetate) (weed [5]): h; Effectiveness in paint V/R (vinyl/rosin) (weed [5]): h
O=c1c(Br)csn1C1CCCCC1 [Example 51] | + + | + | + | 0.01 percentage saturated solution | 143 µg/mL (≈ 545 µM) | 
O=c1c(Br)csn1Cc1ccc(Cl)cc1 [Example 53] | + + | + | + + | 0.1 percentage saturated solution | 18 µg/mL (≈ 59.1 µM) | 
CCCCC(CC)Cn1sc(Cl)c(Cl)c1=O (centres unmarked) [Example 58] | + + | + + | + | 0.0024 percentage saturated solution | 30 µg/mL (≈ 106 µM) | 
CC(C)(C)CC(C)(C)n1sc(Cl)c(Cl)c1=O [Example 59] | + + | + | + + | 0.006 percentage saturated solution | 38 µg/mL (≈ 135 µM) | 
CCCCCCCCCCn1sc(Cl)c(Cl)c1=O [Example 63] | + + | 0 | + + | 0.03 percentage saturated solution | 1.4 µg/mL (≈ 4.51 µM) | Effectiveness in paint CONV (conventional anti-fouling formulation) (weed [5]): l; Effectiveness in paint CR (chlorinated rubber) (weed [5]): p; Effectiveness in paint CR/R (chlorinated rubber/rosin) (weed [5]): p; Effectiveness in paint EM (acrylic emulsion) (weed [5]): m; Effectiveness in paint V (polyvinyl chloride-acetate) (weed [5]): m; Effectiveness in paint V/R (vinyl/rosin) (weed [5]): m
O=c1c(Cl)c(Cl)sn1C1CCCCC1 [Example 67] | + + | + + | + | 0.3 percentage saturated solution |  | solubility [4]: 48 µg/mL (≈ 190 µM)
O=c1c(Cl)c(Cl)sn1CCc1ccccc1 [Example 69] | + + | 0 | + + | 0.01 percentage saturated solution | 22 µg/mL (≈ 80.2 µM) | 
O=c1c(Cl)c(Cl)sn1Cc1ccccc1 [Example 71] | + + | + + | + | 0.25 percentage saturated solution | 52 µg/mL (≈ 200 µM) | 
O=c1c(Cl)c(Cl)sn1Cc1ccc(Cl)cc1 [Example 72] | + + | + | + + | 0.015 percentage saturated solution | 11 µg/mL (≈ 37.3 µM) | 
O=c1c(Cl)c(Cl)sn1-c1ccccc1 [Example 74] | + + | + + | + + | 0.03 percentage saturated solution | 8 µg/mL (≈ 32.5 µM) | 
O=c1c(Cl)c(Cl)sn1-c1ccc(Cl)cc1 [Example 75] | + + | 0 | + + | 0.006 percentage saturated solution | 3 µg/mL (≈ 10.7 µM) | 
Cc1c(Cl)cccc1-n1sc(Cl)c(Cl)c1=O [Example 78] | + + | 0 | + | 0.08 percentage saturated solution | 3.7 µg/mL (≈ 12.6 µM) | 
COc1c(Cl)cccc1-n1sc(Cl)c(Cl)c1=O [Example 79] | + + | + | + + | 0.065 percentage saturated solution |  | Solubility by UV method: rapidly decomposes (remark) ([4]; Table 1 solubility column): rapidly decomposes
O=c1c(Br)c(Cl)sn1Cc1ccc(Cl)cc1 [Example 91] | + + | 0 | + | 0.02 percentage saturated solution | 3.3 µg/mL (≈ 9.73 µM) | 
O=c1c(Br)c(Cl)sn1-c1ccc(Cl)cc1 [Example 93] | + + | + + | + + | 0.012 percentage saturated solution | 1.72 µg/mL (≈ 5.29 µM) | 
O=c1c(Br)c(Br)sn1C1CCCCC1 [Example 98] | + + | 0 | + | 0.02 percentage saturated solution | 6.4 µg/mL (≈ 18.8 µM) | 
O=c1c(Br)c(Br)sn1Cc1ccc(Cl)cc1 [Example 99] | + + | + | + + | 0.01 percentage saturated solution | 1.7 µg/mL (≈ 4.43 µM) | 
Cc1c(Cl)sn(CCc2ccccc2)c1=O [Example 108] | 0 | + + | + | > 1 percentage saturated solution | 155 µg/mL (≈ 611 µM) | 
Cc1c(Cl)sn(-c2cccc(Cl)c2)c1=O [Example 113] | + + | + | + + | 0.013 percentage saturated solution | 13 µg/mL (≈ 50 µM) | 
Cc1c(Cl)sn(-c2ccc(Cl)cc2)c1=O [Example 114] | + + | + + | + + | 0.008 percentage saturated solution | 14 µg/mL (≈ 53.8 µM) | 
